Measured values: patent publication US7517884B2 (Kalypsys Inc., priority 1998, dated 2009)

Legend:
Type in all cases: cell-based, murine and human
Details in all cases: GAL4-PPAR LBD chimera
PPAR-alpha = target: T1, PPAR-alpha (UniProt Q07869); assay: PPAR-alpha transactivation assay (GAL4 chimera, luciferase reporter) in CV-1 cells
T1 sequence (Q07869 1-468): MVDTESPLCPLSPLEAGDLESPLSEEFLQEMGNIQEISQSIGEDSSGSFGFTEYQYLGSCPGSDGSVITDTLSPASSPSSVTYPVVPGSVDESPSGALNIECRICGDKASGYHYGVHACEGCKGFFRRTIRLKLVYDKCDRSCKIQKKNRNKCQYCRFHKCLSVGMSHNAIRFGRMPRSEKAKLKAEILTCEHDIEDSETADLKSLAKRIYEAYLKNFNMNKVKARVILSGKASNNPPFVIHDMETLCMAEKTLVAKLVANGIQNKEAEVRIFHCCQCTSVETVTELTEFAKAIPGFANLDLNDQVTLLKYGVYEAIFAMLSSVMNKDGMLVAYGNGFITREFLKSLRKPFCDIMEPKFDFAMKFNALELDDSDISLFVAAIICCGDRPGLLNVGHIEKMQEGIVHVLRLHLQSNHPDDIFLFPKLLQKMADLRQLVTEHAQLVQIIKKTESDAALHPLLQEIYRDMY
Text: (§1) Compounds may be screened for functional potency in transient transfection assays in CV-1 cells for their ability to activate the PPAR subtypes (transactivation assay). A previously established chimeric receptor system was utilized to allow comparison of the relative transcriptional activity of the receptor subtypes on the same synthetic response element and to prevent endogenous receptor activation from complicating the interpretation of results. See, for example, Lehmann, J. M.; Moore, L. B.; Smith-Oliver, T. A; Wilkinson, W. O.; Willson, T. M.; Kliewer, S. A., An antidiabetic thiazolidinedione is a high affinity ligand for peroxisome proliferator-activated receptor […], J. Biol. Chem., 1995, 270, 12953-6. The ligand binding domains for murine and human PPAR-alpha, PPAR-gamma, and PPAR-delta are each fused to the yeast transcription factor GAL4 DNA binding domain. CV-1 cells were transiently transfected with expression vectors for the respective PPAR chimera along with a reporter construct containing four or five copies of the GAL4 DNA binding site driving expression of luciferase. After 8-16 h, the cells are replated into multi-well assay plates and the media is exchanged to phenol-red free DME medium supplemented with 5% delipidated calf serum. 4 hours after replating, cells were treated with either compounds or 1% DMSO for 20-24 hours. Luciferase activity was then assayed with Britelite (Perkin Elmer) following the manufacturer's protocol and measured with either the Perkin Elmer Viewlux or Molecular Devices Acquest (see, for example, Kliewer, S. A., et. al. Cell 1995, 83, 813-819). Rosiglitazone is used as a positive control in the PPARγ assay. Wy-14643 and GW7647 are used as positive controls in the PPARα assay. GW501516 is used as the positive control in the PPARδ assay.
(§2) Compounds of Examples 1-141 were assayed to measure their biological activity with respect to their EC50 values for modulating PPAR-alpha, PPAR-gamma, and PPAR-delta as set forth in Table 1.

PPAR-delta = target: T2, PPAR-delta (UniProt Q03181); assay: PPAR-delta transactivation assay (GAL4 chimera, luciferase reporter) in CV-1 cells
T2 sequence (Q03181 1-441): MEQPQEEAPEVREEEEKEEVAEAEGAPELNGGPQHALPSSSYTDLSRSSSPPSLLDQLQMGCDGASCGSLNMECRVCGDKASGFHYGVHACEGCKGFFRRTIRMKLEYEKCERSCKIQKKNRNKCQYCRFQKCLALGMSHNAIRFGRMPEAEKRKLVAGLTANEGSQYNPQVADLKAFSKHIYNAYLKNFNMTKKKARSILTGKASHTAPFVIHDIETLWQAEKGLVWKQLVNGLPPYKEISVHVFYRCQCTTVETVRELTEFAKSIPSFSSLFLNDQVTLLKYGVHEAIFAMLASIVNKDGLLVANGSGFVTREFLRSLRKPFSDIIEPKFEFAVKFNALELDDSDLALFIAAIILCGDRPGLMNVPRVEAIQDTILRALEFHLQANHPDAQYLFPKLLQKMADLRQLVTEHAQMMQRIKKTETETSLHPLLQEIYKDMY
Text: as §1, §2

PPAR-gamma = target: T3, PPAR-gamma (UniProt P37231); assay: PPAR-gamma transactivation assay (GAL4 chimera, luciferase reporter) in CV-1 cells
T3 sequence (P37231 1-505): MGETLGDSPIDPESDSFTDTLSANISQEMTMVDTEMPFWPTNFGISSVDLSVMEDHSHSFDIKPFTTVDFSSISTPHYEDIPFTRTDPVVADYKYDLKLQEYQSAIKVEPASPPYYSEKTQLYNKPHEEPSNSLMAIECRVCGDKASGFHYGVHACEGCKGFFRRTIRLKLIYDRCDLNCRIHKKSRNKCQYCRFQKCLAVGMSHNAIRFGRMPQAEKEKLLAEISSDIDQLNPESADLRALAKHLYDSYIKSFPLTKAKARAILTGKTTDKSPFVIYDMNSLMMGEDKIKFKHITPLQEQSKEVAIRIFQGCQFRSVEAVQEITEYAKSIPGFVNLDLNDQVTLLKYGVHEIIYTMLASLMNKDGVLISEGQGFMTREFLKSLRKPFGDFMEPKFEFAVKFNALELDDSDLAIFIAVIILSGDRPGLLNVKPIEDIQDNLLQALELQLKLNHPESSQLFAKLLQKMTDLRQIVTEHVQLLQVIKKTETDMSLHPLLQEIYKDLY
Text: as §1, §2

SMILES	EC50 (PPAR-alpha) [µM]	EC50 (PPAR-delta) [µM]	EC50 (PPAR-gamma) [µM]
O=C(O)C1Cc2cccc(S(=O)(=O)N3CC=C(c4ccc(C(F)(F)F)cc4)CC3)c2C1 (stereo not drawn) [Example 18, 4-[4-(4-trifluoromethyl-phenyl)-3,6-dihydro-2H-pyridine-1-sulfonyl]-indan-2-carboxylic acid]	5 to 100	< 5	5 to 100
O=C(O)C1CCc2ccc(S(=O)(=O)N3CCN(c4ccc(C(F)(F)F)cc4)CC3)cc21 (stereo not drawn) [Example 19, 6-[4-(4-trifluoromethyl-phenyl)-piperazine-1-sulfonyl]-indan-1-carboxylic acid]	< 5	< 5	< 5
O=C(O)C1CCc2ccc(S(=O)(=O)N3CCN(c4ccc(C(F)(F)F)cn4)CC3)cc21 (stereo not drawn) [Example 20, 6-[4-(5-trifluoromethyl-pyridin-2-yl)-piperazine-1-sulfonyl]-indan-1-carboxylic acid]	< 5	< 5	< 5
O=C(O)C1CCc2ccc(S(=O)(=O)N3CCN(c4ccc5c(c4)OCO5)CC3)cc21 (stereo not drawn) [Example 21, 6-(4-Benzo[1,3]dioxol-5-yl-piperazine-1-sulfonyl)-indan-1-carboxylic acid]	5 to 100	5 to 100	5 to 100
O=C(O)C1CCc2ccc(S(=O)(=O)N3CC=C(c4ccc(C(F)(F)F)cc4)CC3)cc21 (stereo not drawn) [Example 22, 6-[4-(4-trifluoromethyl-phenyl)-3,6-dihydro-2H-pyridine-1-sulfonyl]-indan-1-carboxylic acid]	< 5	< 5	5 to 100
C[C@H]1CN(c2ccc(C(F)(F)F)cn2)CCN1S(=O)(=O)c1ccc2c(c1)C(C(=O)O)CC2 (stereo partly drawn) [Example 23, 6-[2-(S)-methyl-4-(5-trifluoromethyl-pyridin-2-yl)-piperazine-1-sulfonyl]-indan-1-carboxylic acid]	< 5	< 5	< 5
C[C@@H]1CN(c2ccc(C(F)(F)F)cn2)CCN1S(=O)(=O)c1ccc2c(c1)C(C(=O)O)CC2 (stereo partly drawn) [Example 24, 6-[2-(R)-methyl-4-(5-trifluoromethyl-pyridin-2-yl)-piperazine-1-sulfonyl]-indan-1-carboxylic acid]	< 5	< 5	< 5
C[C@@H]1CN(S(=O)(=O)c2ccc3c(c2)C(C(=O)O)CC3)CCN1c1ccc(C(F)(F)F)cn1 (stereo partly drawn) [Example 25, 6-[3-(R)-methyl-4-(5-trifluoromethyl-pyridin-2-yl)-piperazine-1-sulfonyl]-indan-1-carboxylic acid]	< 5	< 5	< 5
O=C(O)C1CCc2ccc(S(=O)(=O)N3CCN(c4ccc(C(F)(F)F)c(F)c4)CC3)cc21 (stereo not drawn) [Example 26, 6-[4-(3-fluoro-4-trifluoromethyl-phenyl)-piperazine-1-sulfonyl]-indan-1-carboxylic acid]	< 5	< 5	< 5
C[C@@H]1CN(c2ccc(C(F)(F)F)cn2)C[C@H](C)N1S(=O)(=O)c1ccc2c(c1)C(C(=O)O)CC2 (stereo partly drawn) [Example 27, 6-[cis-2,6-dimethyl-4-(5-trifluoromethyl-pyridin-2-yl)-piperazine-1-sulfonyl]-indan-1-carboxylic acid]	5 to 100	< 5	5 to 100
C[C@@H]1CN(c2ccc(C(F)(F)F)cn2)C[C@H](C)N1S(=O)(=O)c1ccc2c(c1)C(C)(C(=O)O)CC2 (stereo partly drawn) [Example 28, 6-[cis-2,6-dimethyl-4-(5-trifluoromethyl-pyridin-2-yl)-piperazine-1-sulfonyl]-1-methyl-indan-1-carboxylic acid]	> 100	< 5	5 to 100
COc1cc2c(cc1S(=O)(=O)N1CCN(c3ccc(C(F)(F)F)cc3)CC1)CCC2CC(=O)O (stereo not drawn) [Example 29, {6-methoxy-5-[4-(4-trifluoromethyl-phenyl)-piperazine-1-sulfonyl]-indan-1-yl}-acetic acid]	5 to 100	5 to 100	5 to 100
COc1cc2c(cc1S(=O)(=O)N1CCN(c3ccc(Cl)c(Cl)c3)CC1)CCC2CC(=O)O (stereo not drawn) [Example 30, {5-[4-(3,4-dichloro-phenyl)-piperazine-1-sulfonyl]-6-methoxy-indan-1-yl}-acetic acid]	5 to 100	5 to 100	5 to 100
O=C(O)Cn1ccc2cc(S(=O)(=O)N3CCN(c4ccc(C(F)(F)F)cc4)CC3)ccc21 [Example 31, {5-[4-(4-Trifluoromethyl-phenyl)-piperazine-1-sulfonyl]-indol-1-yl}-acetic acid]	> 100	5 to 100	> 100
O=C(O)Cn1ccc2cc(Br)c(S(=O)(=O)N3CCN(c4ccc(C(F)(F)F)cc4)CC3)cc21 [Example 32, {5-Bromo-6-[4-(4-trifluoromethyl-phenyl)-piperazine-1-sulfonyl]-indol-1-yl}-acetic acid]	> 100	< 5	5 to 100
O=C(O)Cn1ccc2cc(Br)c(S(=O)(=O)N3CCN(c4ccc(C(F)(F)F)cn4)CC3)cc21 [Example 33, {5-Bromo-6-[4-(5-trifluoromethyl-pyridin-2-yl)-piperazine-1-sulfonyl]-indol-1-yl}-acetic acid]	> 100	< 5	5 to 100
O=C(O)Cn1ccc2ccc(S(=O)(=O)N3CCN(c4ccc(C(F)(F)F)cc4)CC3)cc21 [Example 34, {6-[4-(4-Trifluoromethyl-phenyl)-piperazine-1-sulfonyl]-indol-1-yl}-acetic acid]	> 100	< 5	5 to 100
O=C(O)Cn1ccc2ccc(S(=O)(=O)N3CCN(c4ccc(C(F)(F)F)cn4)CC3)cc21 [Example 35, {6-[4-(5-trifluoromethyl-pyridin-2-yl)-piperazine-1-sulfonyl]-indol-1-yl}-acetic acid]	5 to 100	< 5	5 to 100
COc1ccc2c(CC(=O)O)csc2c1S(=O)(=O)N1CCN(c2ccc(C(F)(F)F)cn2)CC1 [Example 36, {6-Methoxy-7-[4-(5-trifluoromethyl-pyridin-2-yl)-piperazine-1-sulfonyl]-benzo[b]thiophen-3-yl}-acetic acid]	> 100	> 100	5 to 100
O=C(O)Cc1csc2ccc(S(=O)(=O)N3CCN(c4ccc(C(F)(F)F)cn4)CC3)cc12 [Example 37, {5-[4-(5-Trifluoromethyl-pyridin-2-yl)piperazine-1-sulfonyl]-benzo[b]thiophen-3-yl}-acetic acid]	5 to 100	< 5	< 5
